Values of other authors in patent US20260174914A1, “METHOD OF TREATING PSMA-EXPRESSING CANCERS” (ENDOCYTE, INC., priority 2020, published 2026).

Q: For “XOMA 089: fully human monoclonal antibody that specifically binds and neutralizes TGF-beta 1 and 2 ligands”, which “cross-reactivity with cynomolgus monkey TGF-β” value (cynomolgus monkey TGF-β) is on record?
A: cross-reacts

Q: And the “cross-reactivity with rodent TGF-β” value (rodent TGF-β)?
A: cross-reacts
